Experimental data taken from PubChem BioAssay (NCI).
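Cultured in 96-well plates, cells were exposed to test compound for 48 hours across five concentrations. At the GI50, growth is halved. At the TGI there is no net growth.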

Experiments:
Assay in all cases: DTP human tumour cell line panel, 48 h
U251 CNS = system: U251 CNS
OVCAR-5 ovarian = system: OVCAR-5 ovarian
RPMI-8226 leukemia = system: RPMI-8226 leukemia
SK-MEL-2 melanoma = system: SK-MEL-2 melanoma
OVCAR-4 ovarian = system: OVCAR-4 ovarian
SF-268 CNS = system: SF-268 CNS
A498 renal = system: A498 renal
COLO 205 colon = system: COLO 205 colon
SN12C renal = system: SN12C renal
HS 578T breast = system: HS 578T breast
IGROV1 ovarian = system: IGROV1 ovarian
MCF7 breast = system: MCF7 breast
NCI/ADR-RES ovarian = system: NCI/ADR-RES ovarian
SF-295 CNS = system: SF-295 CNS
CAKI-1 renal = system: CAKI-1 renal
NCI-H226 lung = system: NCI-H226 lung
SK-MEL-5 melanoma = system: SK-MEL-5 melanoma
HT29 colon = system: HT29 colon
SK-MEL-28 melanoma = system: SK-MEL-28 melanoma
EKVX NSCLC = system: EKVX NSCLC
HCC-2998 colon = system: HCC-2998 colon
TK-10 renal = system: TK-10 renal
BT-549 breast = system: BT-549 breast
NCI-H460 lung = system: NCI-H460 lung
HOP-62 NSCLC = system: HOP-62 NSCLC
UO-31 renal = system: UO-31 renal
HCT-15 colon = system: HCT-15 colon
A549 NSCLC = system: A549 NSCLC
ACHN renal = system: ACHN renal
UACC-257 melanoma = system: UACC-257 melanoma
M14 melanoma = system: M14 melanoma
RXF 393 renal = system: RXF 393 renal
SR leukemia = system: SR leukemia
LOX IMVI melanoma = system: LOX IMVI melanoma
SF-539 CNS = system: SF-539 CNS
786-0 renal = system: 786-0 renal
SK-OV-3 ovarian = system: SK-OV-3 ovarian
MDA-MB-435 = system: MDA-MB-435
HL-60(TB) leukemia = system: HL-60(TB) leukemia
MALME-3M melanoma = system: MALME-3M melanoma
KM12 colon = system: KM12 colon
OVCAR-8 ovarian = system: OVCAR-8 ovarian
NCI-H522 lung = system: NCI-H522 lung
HOP-92 NSCLC = system: HOP-92 NSCLC
SW-620 colon = system: SW-620 colon
K-562 leukemia = system: K-562 leukemia
SNB-19 CNS = system: SNB-19 CNS
MDA-MB-231 breast = system: MDA-MB-231 breast
DU-145 prostate = system: DU-145 prostate
UACC-62 melanoma = system: UACC-62 melanoma
HCT-116 colon = system: HCT-116 colon
SNB-75 CNS = system: SNB-75 CNS
PC-3 prostate = system: PC-3 prostate

COc1cccc(N2CCN(C3=C(Cl)C(=O)c4ncccc4C3=O)CC2)c1
GI50 (U251 CNS): 5.46 µM
TGI (U251 CNS): 19.5 µM
GI50 (OVCAR-5 ovarian): 15.4 µM
TGI (OVCAR-5 ovarian): 30.3 µM
GI50 (RPMI-8226 leukemia): 2270 nM
TGI (RPMI-8226 leukemia): 5.92 µM
GI50 (SK-MEL-2 melanoma): 6.25 µM
TGI (SK-MEL-2 melanoma): 19.3 µM
GI50 (OVCAR-4 ovarian): 1730 nM
TGI (OVCAR-4 ovarian): 3.26 µM
GI50 (SF-268 CNS): 13.1 µM
TGI (SF-268 CNS): 29.6 µM
GI50 (A498 renal): 13.5 µM
TGI (A498 renal): 26.4 µM
GI50 (COLO 205 colon): 1870 nM
TGI (COLO 205 colon): 4.01 µM
GI50 (SN12C renal): 5.19 µM
TGI (SN12C renal): 20.2 µM
GI50 (HS 578T breast): 10 µM
TGI (HS 578T breast): 51.5 µM
GI50 (IGROV1 ovarian): 2930 nM
TGI (IGROV1 ovarian): 9.52 µM
GI50 (MCF7 breast): 1980 nM
TGI (MCF7 breast): 5.86 µM
GI50 (NCI/ADR-RES ovarian): 3.36 µM
TGI (NCI/ADR-RES ovarian): 15.5 µM
GI50 (SF-295 CNS): 12.5 µM
TGI (SF-295 CNS): 26.2 µM
GI50 (CAKI-1 renal): 2640 nM
TGI (CAKI-1 renal): 8.15 µM
GI50 (NCI-H226 lung): 14 µM
TGI (NCI-H226 lung): 31.9 µM
GI50 (SK-MEL-5 melanoma): 11.5 µM
TGI (SK-MEL-5 melanoma): 23.8 µM
GI50 (HT29 colon): 12.2 µM
TGI (HT29 colon): 28.6 µM
GI50 (SK-MEL-28 melanoma): 3.3 µM
TGI (SK-MEL-28 melanoma): 9.58 µM
GI50 (EKVX NSCLC): 2050 nM
TGI (EKVX NSCLC): 4.42 µM
GI50 (HCC-2998 colon): 12.1 µM
TGI (HCC-2998 colon): 25.5 µM
GI50 (TK-10 renal): 4.18 µM
TGI (TK-10 renal): 13.2 µM
GI50 (BT-549 breast): 6.75 µM
TGI (BT-549 breast): 18.3 µM
GI50 (NCI-H460 lung): 7.26 µM
TGI (NCI-H460 lung): 26.7 µM
GI50 (HOP-62 NSCLC): 18.5 µM
TGI (HOP-62 NSCLC): 33.2 µM
GI50 (UO-31 renal): 1640 nM
TGI (UO-31 renal): 3.4 µM
GI50 (HCT-15 colon): 2050 nM
TGI (HCT-15 colon): 5.6 µM
GI50 (A549 NSCLC): 15.5 µM
TGI (A549 NSCLC): 33 µM
GI50 (ACHN renal): 1760 nM
TGI (ACHN renal): 3.19 µM
GI50 (UACC-257 melanoma): 2120 nM
TGI (UACC-257 melanoma): 5.23 µM
GI50 (M14 melanoma): 3.27 µM
TGI (M14 melanoma): 13 µM
GI50 (RXF 393 renal): 1770 nM
TGI (RXF 393 renal): 3.25 µM
GI50 (SR leukemia): 1800 nM
TGI (SR leukemia): 5.38 µM
GI50 (LOX IMVI melanoma): 1620 nM
TGI (LOX IMVI melanoma): 3.12 µM
GI50 (SF-539 CNS): 11.4 µM
TGI (SF-539 CNS): 23.6 µM
GI50 (786-0 renal): 5.02 µM
TGI (786-0 renal): 16.3 µM
GI50 (SK-OV-3 ovarian): 15.4 µM
TGI (SK-OV-3 ovarian): 46.2 µM
GI50 (MDA-MB-435): 1790 nM
TGI (MDA-MB-435): 3.34 µM
GI50 (HL-60(TB) leukemia): 1750 nM
TGI (HL-60(TB) leukemia): 4.47 µM
GI50 (MALME-3M melanoma): 1840 nM
TGI (MALME-3M melanoma): 4.06 µM
GI50 (KM12 colon): 20.3 µM
TGI (KM12 colon): 41.7 µM
GI50 (OVCAR-8 ovarian): 2000 nM
TGI (OVCAR-8 ovarian): 5.01 µM
GI50 (NCI-H522 lung): 1730 nM
TGI (NCI-H522 lung): 3.39 µM
GI50 (HOP-92 NSCLC): 1630 nM
TGI (HOP-92 NSCLC): 3.07 µM
GI50 (SW-620 colon): 1640 nM
TGI (SW-620 colon): 3.32 µM
GI50 (K-562 leukemia): 2300 nM
TGI (K-562 leukemia): 6.28 µM
GI50 (SNB-19 CNS): 16.2 µM
TGI (SNB-19 CNS): 32.9 µM
GI50 (MDA-MB-231 breast): 1680 nM
TGI (MDA-MB-231 breast): 3.2 µM
GI50 (DU-145 prostate): 11.1 µM
TGI (DU-145 prostate): 23.1 µM
GI50 (UACC-62 melanoma): 3.48 µM
TGI (UACC-62 melanoma): 12.3 µM
GI50 (HCT-116 colon): 1730 nM
TGI (HCT-116 colon): 3.18 µM
GI50 (SNB-75 CNS): 11.8 µM
TGI (SNB-75 CNS): 24.7 µM
GI50 (PC-3 prostate): 8.55 µM
TGI (PC-3 prostate): 22.3 µM
